Results as given in PMC12340637, “Transport of Small Aliphatic Amines by Polyspecific Solute Carriers: Deciphering Structure–Function Relationships” (ACS Pharmacology & Translational Science, 2025).
Like-named read-outs stand apart in the source and are kept apart here. Marks after values point to notes of the source that are not given here.

Columns and labels:
OCT2 (SLC22A2) [1] = molecular target: T1, OCT2 (SLC22A2) (Homo sapiens, UniProt O15244); test: in vitro; conditions: pH 7.4
T1 sequence (O15244 1-555): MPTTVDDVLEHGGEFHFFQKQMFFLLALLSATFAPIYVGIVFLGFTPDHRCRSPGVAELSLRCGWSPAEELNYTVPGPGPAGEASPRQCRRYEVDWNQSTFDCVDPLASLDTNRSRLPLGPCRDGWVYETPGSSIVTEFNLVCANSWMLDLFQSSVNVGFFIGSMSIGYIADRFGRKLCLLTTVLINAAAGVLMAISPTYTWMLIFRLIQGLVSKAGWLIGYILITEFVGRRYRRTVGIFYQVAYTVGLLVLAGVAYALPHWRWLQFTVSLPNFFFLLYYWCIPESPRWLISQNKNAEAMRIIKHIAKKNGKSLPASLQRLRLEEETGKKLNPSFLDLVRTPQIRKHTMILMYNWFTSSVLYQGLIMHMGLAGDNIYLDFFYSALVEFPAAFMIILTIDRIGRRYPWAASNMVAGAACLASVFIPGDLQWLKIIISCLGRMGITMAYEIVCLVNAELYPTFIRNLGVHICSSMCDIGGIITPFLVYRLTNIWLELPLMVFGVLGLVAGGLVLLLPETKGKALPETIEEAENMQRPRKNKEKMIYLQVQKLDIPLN

OCT3 (SLC22A3) = molecular target: T2, OCT3 (SLC22A3) (Homo sapiens, UniProt O75751); test: Cellular uptake into OCT3-overexpressing HEK293 cells vs EV control cells (HPLC-MS/MS); conditions: for substrate activity at OCT3 (in words): uptake ratio ≥2 = notable transport; for uptake ratio OCT3 (transporter-overexpressing cells over EV control cells): mean (±SD, N): 2 min, HEK293
T2 sequence (O75751 1-556): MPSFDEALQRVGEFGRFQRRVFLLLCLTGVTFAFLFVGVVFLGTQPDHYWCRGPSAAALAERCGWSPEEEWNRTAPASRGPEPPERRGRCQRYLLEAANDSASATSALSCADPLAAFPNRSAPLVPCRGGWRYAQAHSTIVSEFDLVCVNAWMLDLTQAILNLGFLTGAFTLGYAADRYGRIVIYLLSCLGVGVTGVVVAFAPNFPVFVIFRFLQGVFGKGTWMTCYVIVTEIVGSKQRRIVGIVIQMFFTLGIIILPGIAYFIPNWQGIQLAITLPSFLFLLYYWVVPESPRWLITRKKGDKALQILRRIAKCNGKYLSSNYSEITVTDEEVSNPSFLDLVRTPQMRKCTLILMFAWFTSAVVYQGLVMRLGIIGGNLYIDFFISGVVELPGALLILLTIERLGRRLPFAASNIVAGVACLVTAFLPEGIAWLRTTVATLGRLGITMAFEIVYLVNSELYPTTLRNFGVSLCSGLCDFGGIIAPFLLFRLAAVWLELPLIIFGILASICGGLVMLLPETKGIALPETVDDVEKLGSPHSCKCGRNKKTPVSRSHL

OCT2 (SLC22A2) [2] = molecular target: T1, OCT2 (SLC22A2); test: Cellular uptake into OCT2-overexpressing HEK293 cells vs EV control cells (HPLC-MS/MS); conditions: for K m (±SEM) / v max (±SEM): OCT2, net uptake, Michaelis–Menten; for uptake ratio OCT2 (transporter-overexpressing cells over EV control cells): mean (±SD, N): 2 min, HEK293
MATE1 (SLC47A1) = molecular target: T3, MATE1 (SLC47A1) (Homo sapiens, UniProt Q96FL8); test: Cellular uptake into MATE1-overexpressing HEK293 cells vs EV control cells (HPLC-MS/MS); conditions: for uptake ratio MATE1 (transporter-overexpressing cells over EV control cells): mean (±SD, N): 2.5 μM substrate, 1 min, 30 mM NH4Cl preincubation, HEK293
T3 sequence (Q96FL8 1-570): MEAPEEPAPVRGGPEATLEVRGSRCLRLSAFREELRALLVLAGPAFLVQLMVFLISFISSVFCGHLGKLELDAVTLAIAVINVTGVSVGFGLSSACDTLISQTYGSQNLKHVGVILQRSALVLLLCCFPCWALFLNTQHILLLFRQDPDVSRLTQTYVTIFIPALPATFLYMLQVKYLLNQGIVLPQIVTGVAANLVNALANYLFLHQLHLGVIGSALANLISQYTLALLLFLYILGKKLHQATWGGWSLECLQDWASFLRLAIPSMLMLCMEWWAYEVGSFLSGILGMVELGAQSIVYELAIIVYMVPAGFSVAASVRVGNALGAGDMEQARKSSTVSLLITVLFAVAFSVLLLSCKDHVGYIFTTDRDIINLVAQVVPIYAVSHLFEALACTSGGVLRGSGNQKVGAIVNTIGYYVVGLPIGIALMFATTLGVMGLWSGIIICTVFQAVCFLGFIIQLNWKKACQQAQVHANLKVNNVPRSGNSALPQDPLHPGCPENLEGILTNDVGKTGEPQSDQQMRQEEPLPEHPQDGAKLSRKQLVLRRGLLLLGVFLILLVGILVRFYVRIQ

MATE2-K (SLC47A2) = MATE2-K (SLC47A2) (Homo sapiens, UniProt Q86VL8); test: Cellular uptake into MATE2-K-overexpressing HEK293 cells vs EV control cells (HPLC-MS/MS); conditions: for uptake ratio MATE2K (transporter-overexpressing cells over EV control cells): mean (±SD, N): 2.5 μM substrate, 1 min, 30 mM NH4Cl preincubation, HEK293
Sequence of MATE2-K (SLC47A2) (Q86VL8 1-566 isoform Q86VL8-3): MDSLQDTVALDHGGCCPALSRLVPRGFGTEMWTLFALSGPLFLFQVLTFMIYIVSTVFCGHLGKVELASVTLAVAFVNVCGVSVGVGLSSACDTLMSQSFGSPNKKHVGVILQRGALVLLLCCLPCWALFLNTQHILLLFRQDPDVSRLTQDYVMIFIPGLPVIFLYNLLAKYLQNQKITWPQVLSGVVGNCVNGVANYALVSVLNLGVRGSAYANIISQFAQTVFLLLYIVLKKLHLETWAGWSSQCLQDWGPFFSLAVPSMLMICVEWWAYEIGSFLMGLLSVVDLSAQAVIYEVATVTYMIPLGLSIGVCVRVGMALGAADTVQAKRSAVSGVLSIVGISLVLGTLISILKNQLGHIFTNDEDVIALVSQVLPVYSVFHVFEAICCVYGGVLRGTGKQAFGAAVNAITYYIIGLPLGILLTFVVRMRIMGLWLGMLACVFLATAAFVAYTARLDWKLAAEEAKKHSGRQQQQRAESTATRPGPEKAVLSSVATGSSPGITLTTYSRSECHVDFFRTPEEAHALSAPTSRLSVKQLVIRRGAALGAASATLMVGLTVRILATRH

OCT1 (SLC22A1) = molecular target: T4, OCT1 (SLC22A1) (Homo sapiens, UniProt O15245); test: Cellular uptake into OCT1-overexpressing HEK293 cells vs EV control cells (HPLC-MS/MS); conditions: for uptake ratio OCT1 (transporter-overexpressing cells over EV control cells): mean (±SD, N): 2 min, HEK293
T4 sequence (O15245 1-554): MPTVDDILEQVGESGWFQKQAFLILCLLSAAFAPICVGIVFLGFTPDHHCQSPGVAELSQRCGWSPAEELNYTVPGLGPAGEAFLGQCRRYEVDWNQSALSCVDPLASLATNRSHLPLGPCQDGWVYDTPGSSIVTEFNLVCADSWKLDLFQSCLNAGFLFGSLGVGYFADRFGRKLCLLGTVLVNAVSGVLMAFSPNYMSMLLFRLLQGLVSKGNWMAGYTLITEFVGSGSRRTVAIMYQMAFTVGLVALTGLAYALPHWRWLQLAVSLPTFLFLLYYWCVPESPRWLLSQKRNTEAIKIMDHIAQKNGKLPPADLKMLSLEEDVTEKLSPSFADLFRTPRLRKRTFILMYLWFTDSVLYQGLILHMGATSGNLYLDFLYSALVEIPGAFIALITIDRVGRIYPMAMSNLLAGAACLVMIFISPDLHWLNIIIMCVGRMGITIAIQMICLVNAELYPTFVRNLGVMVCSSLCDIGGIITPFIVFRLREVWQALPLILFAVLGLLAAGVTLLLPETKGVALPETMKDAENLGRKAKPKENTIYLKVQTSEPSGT

[3] = MATE1, net uptake, Michaelis–Menten
[4] = OCT1, net uptake, Michaelis–Menten
[5] = uptake ratio ≥2 = notable transport

| Structure (SMILES) | uptake ratio MATE1 (transporter-overexpressing cells over EV control cells): mean (±SD, N) (MATE1 (SLC47A1)) | uptake ratio MATE2K (transporter-overexpressing cells over EV control cells): mean (±SD, N) (MATE2-K (SLC47A2)) | uptake ratio OCT3 (transporter-overexpressing cells over EV control cells): mean (±SD, N) (OCT3 (SLC22A3); 10 μM substrate) | uptake ratio OCT2 (transporter-overexpressing cells over EV control cells): mean (±SD, N) (OCT2 (SLC22A2) [2]; 10 μM substrate) | uptake ratio OCT1 (transporter-overexpressing cells over EV control cells): mean (±SD, N) (OCT1 (SLC22A1); 10 μM substrate) | other results |
| --- | --- | --- | --- | --- | --- | --- |
| CCCC[C@H](N)CO [(S)-(+)-2-amino-1-hexanol] | – | – | – | – | – | selectivity ratio at 2 min (OCT2 (SLC22A2) [1]): 1.3; stereoselectivity OCT3 (uptake ratio of the more strongly transported enantiomer divided by that of the other) (OCT3 (SLC22A3); label = favoured enantiomer): 1.3-fold for (S); K m (±SEM) (OCT2 (SLC22A2) [2]): 39 (±12) μM; v max (±SEM) (OCT2 (SLC22A2) [2]): 786 (±72) ^b pmol/mg protein/min |
| CC(C)C[C@H](N)CO [(S)-(+)-leucinol] | – | – | – | – | – | selectivity ratio at 2 min (OCT2 (SLC22A2) [1]): 1.2 |
| OCCNCCO [diethanolamine] | – | – | – | – | – | substrate activity at MATE1 (in words) (MATE1 (SLC47A1)): did not show any substrate activity; substrate activity at MATE2-K (in words) (MATE2-K (SLC47A2)): did not show any substrate activity; substrate activity at OCT3 (in words) (OCT3 (SLC22A3)): did not show any substrate activity; substrate activity at OCT2 (in words) (OCT2 (SLC22A2) [2]): did not show any substrate activity; substrate activity at OCT1 (in words) (OCT1 (SLC22A1)): did not show any substrate activity |
| NCCO [ethanolamine^13C2, ethanolamine-^13C2] | 1.2 (0.4, 4) | 1.2 (0.4, 4) | 1.4 (0.5, 4) | 0.4 (0.2, 4) ^b | 0.6 (0.3, 4) | less uptake in OCT2-transfected cells compared to EV control cells (OCT2 (SLC22A2) [2]; 10 μM, p = 0.009): 64%; uptake in OCT2-overexpressing cells as part of the uptake observed in EV control cells (OCT2 (SLC22A2) [2]; discussion): two-thirds; lower uptake in OCT1-transfected cells compared to EV control cells (OCT1 (SLC22A1); 10 μM): 38%; uptake in OCT1-overexpressing cells as part of the uptake observed in EV control cells (OCT1 (SLC22A1); discussion): approximately one-third |
| CC(C)CN [isobutylamine] | 0.9 (0.2, 4) | 1.2 (0.3, 4) | 0.7 (0.2, 4) ^a | 3.4 (1.2, 4) ^a | 1.1 (0.2, 4) | – |
| CCC(C)(C)N [tert-amylamine] | 0.9 (0.2, 3) | 1.0 (0.1, 3) | – | – | – | uptake ratio OCT3 (transporter-overexpressing cells over EV control cells): mean (±SD, N) (OCT3 (SLC22A3); 2.5 μM substrate (§)): 0.8 (0.1, 3); uptake ratio OCT2 (transporter-overexpressing cells over EV control cells): mean (±SD, N) (OCT2 (SLC22A2) [2]; 2.5 μM substrate (§)): 4.7 (2.1, 3); uptake ratio OCT1 (transporter-overexpressing cells over EV control cells): mean (±SD, N) (OCT1 (SLC22A1); 2.5 μM substrate (§)): 1.0 (0.3, 3) |
| CCN(CC)CC [triethylamine] | 0.8 (0.2, 3) | 1.1 (0.2, 3) | 0.8 (0.3, 4) | 5.0 (1.3, 4) ^b | 1.2 (0.1, 4) | v max (±SEM) (OCT2 (SLC22A2) [2]): 1053 (±206) pmol/mg protein/min |
| CC(N)CN(CC(C)N)CC(C)N (centres unmarked) [tris(2-aminopropyl)amine] | - ^d | - ^d | - ^d | - ^d | - ^d | substrate activity at MATE1 (in words) (MATE1 (SLC47A1); [5]): did not show any substrate activity; substrate activity at MATE2-K (in words) (MATE2-K (SLC47A2); [5]): did not show any substrate activity; substrate activity at OCT3 (in words) (OCT3 (SLC22A3)): did not show any substrate activity; substrate activity at OCT2 (in words) (OCT2 (SLC22A2) [2]; [5]): did not show any substrate activity; substrate activity at OCT1 (in words) (OCT1 (SLC22A1); [5]): did not show any substrate activity |

The next lines start with results.

| uptake ratio MATE1 (transporter-overexpressing cells over EV control cells): mean (±SD, N) (MATE1 (SLC47A1)) | uptake ratio MATE2K (transporter-overexpressing cells over EV control cells): mean (±SD, N) (MATE2-K (SLC47A2)) | uptake ratio OCT3 (transporter-overexpressing cells over EV control cells): mean (±SD, N) (OCT3 (SLC22A3); 10 μM substrate) | uptake ratio OCT2 (transporter-overexpressing cells over EV control cells): mean (±SD, N) (OCT2 (SLC22A2) [2]; 10 μM substrate) | uptake ratio OCT1 (transporter-overexpressing cells over EV control cells): mean (±SD, N) (OCT1 (SLC22A1); 10 μM substrate) | Structure (SMILES) | other results |
| --- | --- | --- | --- | --- | --- | --- |
| 6.6 (1.3, 3) ^a | 1.0 (0.2, 3) | – | – | – | CC(N)CCCC(C)(C)O (centres unmarked) [heptaminol] | K m (±SEM) (MATE1 (SLC47A1); [3]): 154 (±18) μM; v max (±SEM) (MATE1 (SLC47A1); [3]): 8061 (±283) pmol/mg protein/min; CLint of MATE1 higher than that of OCT1 (MATE1 (SLC47A1); MATE1 vs OCT1): 6.0 fold; CLint of MATE1 higher than that of OCT2 (MATE1 (SLC47A1); MATE1 vs OCT2): 3.7 fold; uptake ratio OCT3 (transporter-overexpressing cells over EV control cells): mean (±SD, N) (OCT3 (SLC22A3); 2.5 μM substrate (§)): 1.1 (0.29, 4); uptake ratio OCT2 (transporter-overexpressing cells over EV control cells): mean (±SD, N) (OCT2 (SLC22A2) [2]; 2.5 μM substrate (§)): 8.7 (5.0, 3); K m (±SEM) (OCT2 (SLC22A2) [2]): 1089 (±213) μM; v max (±SEM) (OCT2 (SLC22A2) [2]): 9730 (±1210) pmol/mg protein/min; uptake ratio OCT1 (transporter-overexpressing cells over EV control cells): mean (±SD, N) (OCT1 (SLC22A1); 2.5 μM substrate (§)): 11.3 (4.6, 3); K m (±SEM) (OCT1 (SLC22A1); [4]): 241 (±68) μM; v max (±SEM) (OCT1 (SLC22A1); [4]): 1480 (±174) pmol/mg protein/min |
| 1.0 (0.3, 4) | 1.4 (0.3, 4) | 1.85 (1.17, 6) | 4.2 (3.1, 6) ^a | 2.5 (1.9, 6) | CCCCCCCN [heptylamine] | – |
| 0.8 (0.2, 4) | 1.2 (0.6, 5) | 0.6 (0.2, 4) ^a | 1.6 (0.4, 4) | 1.8 (1.4, 5) | CCCCCCN [hexylamine] | – |
